According to US20080317780A1, “VIRAL VACCINE AND METHOD FOR PREPARATION THEREOF” (NATIONAL RESEARCH COUNCIL OF CANADA, priority 2006, published 2008):

Test system: zinc finger protein metallothionein (MT)
Assay: Zinc-finger disruption assay (zinc release from metallothionein, PAR absorbance at 500 nm)
Format: biochemical
Experimental: Biochem. Biophys. 287:175-179, 1991; and Fliss, H.; Ménard, M., “Oxidant-induced mobilization of zinc from metallothionein” Arch. Biochem. Biophys. 293:195-199, 1991. Briefly, the assay is conducted as follows. The assay is performed in a cuvet containing the zinc finger protein metallothionein (MT), and the metallochromic indicator 4-(2-pyridylazo)resorcinol (PAR).

## NCl [monochloramine]
25 μmol/L
  zinc-finger disruption (PAR absorbance): increase in PAR absorbance

## OCl [hypochlorous acid]
100 μmol/L
  release of zinc in the zinc-finger assay (PAR absorbance): rapid

## N[C@@H](Cc1ccccc1)C(=O)O [phenylalanine]
500 μmol/L
  release of zinc in the zinc-finger assay (PAR absorbance): negligible
